Assay results reported in ChEMBL document CHEMBL1201862, “PubChem BioAssay data set” (2004).
The source made the active and inactive calls.

How the values were obtained:
Bcl-2-like protein 10 = Bcl-2-like protein 10 (Homo sapiens, UniProt Q9HD36); test: Biochemical TR3 FP assay of Bcl-B inhibitor potency, EC50 (AID 1243); format: functional
[1] = target: Photoreceptor-specific nuclear receptor (Homo sapiens, UniProt Q9Y5X4); format: functional;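 also: potency for compounds that break the NR2E3 corepressor complex and count as activators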
[2] = target: T1, Heat shock factor protein 1 (Mus musculus, UniProt P38532); test: HSF1 potentiators in luciferase reporter cells, confirmation, cell-based, NIH3T3, luminescence, dose retest (AID 435004); format: functional;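 also: stress induced by proteasome inhibitor MG132 added 30 min after compound; luciferase reporter driven by HSF1 response element in NIH3T3 cells; actives raise luminescence as potentiators of the MG132 stress response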
T1 sequence (P38532 whole entry): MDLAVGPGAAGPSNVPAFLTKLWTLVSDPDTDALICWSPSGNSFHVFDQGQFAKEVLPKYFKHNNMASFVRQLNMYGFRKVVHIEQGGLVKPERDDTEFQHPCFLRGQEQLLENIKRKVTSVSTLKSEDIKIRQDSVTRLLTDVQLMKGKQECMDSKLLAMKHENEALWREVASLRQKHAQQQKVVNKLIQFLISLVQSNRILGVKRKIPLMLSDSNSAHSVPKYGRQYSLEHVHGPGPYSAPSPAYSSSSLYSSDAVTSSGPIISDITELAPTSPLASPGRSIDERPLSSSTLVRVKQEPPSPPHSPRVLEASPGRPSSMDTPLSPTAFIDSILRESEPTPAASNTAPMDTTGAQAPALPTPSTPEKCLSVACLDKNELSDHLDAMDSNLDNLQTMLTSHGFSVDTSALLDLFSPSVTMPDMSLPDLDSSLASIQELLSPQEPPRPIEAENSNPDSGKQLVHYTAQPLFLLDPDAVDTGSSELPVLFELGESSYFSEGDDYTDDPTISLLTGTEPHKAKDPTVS

[3] = target: Peroxisome proliferator-activated receptor gamma/Nuclear receptor corepressor 2 (Homo sapiens, UniProt P37231+Q9Y618); format: functional
Cytochrome P450 2C9 = Cytochrome P450 2C9 (Homo sapiens, UniProt P11712); details: Potency
Vero = test: cytotoxicity of synthesized analogs in Vero cells, SAR follow-up, cytotoxicity control for West Nile virus antiviral project, cell-based, set II (AID 2402); format: functional; details: Chlorocebus sabaeus
[4] = A Cell Based Assay for the Identification of Probe candidate Compounds with Anti- Venezuelan Equine Encephalitis virus. [Related pubchem assays: 2409, 2419, 1621, 2238, 2405, 2024, 2065, 2402, 2414, 1635, 1650, 2244 ]; format: functional
[5] = target: Melanin-concentrating hormone receptor 1 (Homo sapiens, UniProt Q99705); test: Late-stage fluorescence-based counterscreen for antagonists of the G-protein coupled receptor 7 (GPR7): cell-based dose response assay to identify antagonists of the melanin-concentrating hormone receptor 1 (MCHR1). [Related pubchem assays (depositor defined):AID1861, AID1880, AID1952, AID2148, AID2251, AID2257, AID485339]; format: functional;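 also: stimulated with 30 nM MCH peptide agonist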
HeLa = test: HeLa cell cytotoxicity, dose response, cytotoxicity control, 24 h, cherry-picked samples (AID 504726); format: functional, cell-based; details: Homo sapiens;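 also: potency for cytotoxicity as loss of luminescence signal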
[6] = target: Neuropeptide Y receptor type 2 (Homo sapiens, UniProt P49146); format: functional, cell-based;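 also: HEK293 cells expressing the receptor and a CNG channel; stimulus was NPY near EC95 followed by isoproterenol to raise cAMP; antagonist potency measured as restoring cAMP signal that NPY suppresses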
[7] = target: Neuropeptide Y receptor type 1 (Homo sapiens, UniProt P25929); format: functional;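 also: HEK293 cells with a CNG channel challenged with NPY then isoproterenol; potency as antagonist that reverses NPY suppression of cAMP signal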
Neuropeptide Y receptor type 1, sequence (P25929 whole entry): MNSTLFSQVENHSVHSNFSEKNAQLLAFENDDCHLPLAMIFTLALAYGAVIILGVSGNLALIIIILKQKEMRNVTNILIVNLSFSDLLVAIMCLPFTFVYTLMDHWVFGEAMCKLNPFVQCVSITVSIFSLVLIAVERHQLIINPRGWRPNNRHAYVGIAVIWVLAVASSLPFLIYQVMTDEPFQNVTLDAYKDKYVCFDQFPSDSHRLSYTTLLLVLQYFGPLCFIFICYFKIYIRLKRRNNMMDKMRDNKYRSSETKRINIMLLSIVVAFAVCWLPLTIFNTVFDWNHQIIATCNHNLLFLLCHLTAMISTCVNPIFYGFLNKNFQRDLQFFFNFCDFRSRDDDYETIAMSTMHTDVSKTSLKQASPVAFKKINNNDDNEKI

Cytochrome P450 2C9, sequence (P11712 whole entry): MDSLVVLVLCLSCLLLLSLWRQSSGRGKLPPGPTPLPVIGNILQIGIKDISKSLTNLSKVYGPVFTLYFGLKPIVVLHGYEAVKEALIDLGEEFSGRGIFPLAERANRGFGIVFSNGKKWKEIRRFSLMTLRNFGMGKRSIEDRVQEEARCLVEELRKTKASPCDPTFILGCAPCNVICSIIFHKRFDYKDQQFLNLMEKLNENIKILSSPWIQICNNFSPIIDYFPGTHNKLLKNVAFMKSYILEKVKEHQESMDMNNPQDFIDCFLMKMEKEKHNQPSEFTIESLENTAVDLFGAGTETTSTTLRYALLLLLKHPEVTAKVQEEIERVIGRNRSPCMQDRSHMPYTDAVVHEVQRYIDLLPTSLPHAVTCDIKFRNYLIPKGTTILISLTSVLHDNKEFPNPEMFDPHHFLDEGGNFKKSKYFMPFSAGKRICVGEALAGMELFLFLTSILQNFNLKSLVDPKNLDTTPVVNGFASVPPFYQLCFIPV
Photoreceptor-specific nuclear receptor, sequence (Q9Y5X4 whole entry): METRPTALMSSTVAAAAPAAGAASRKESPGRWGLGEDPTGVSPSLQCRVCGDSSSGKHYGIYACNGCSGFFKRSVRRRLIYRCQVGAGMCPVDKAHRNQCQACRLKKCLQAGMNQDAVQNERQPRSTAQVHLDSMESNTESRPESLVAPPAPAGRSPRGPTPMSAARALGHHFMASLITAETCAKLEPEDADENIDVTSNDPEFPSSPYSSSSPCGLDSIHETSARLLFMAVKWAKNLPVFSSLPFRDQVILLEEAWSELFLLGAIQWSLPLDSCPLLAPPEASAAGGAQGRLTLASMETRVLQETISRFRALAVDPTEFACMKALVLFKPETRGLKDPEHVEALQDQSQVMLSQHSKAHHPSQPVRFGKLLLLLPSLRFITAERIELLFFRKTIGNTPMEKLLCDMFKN
Neuropeptide Y receptor type 2, sequence (P49146 whole entry): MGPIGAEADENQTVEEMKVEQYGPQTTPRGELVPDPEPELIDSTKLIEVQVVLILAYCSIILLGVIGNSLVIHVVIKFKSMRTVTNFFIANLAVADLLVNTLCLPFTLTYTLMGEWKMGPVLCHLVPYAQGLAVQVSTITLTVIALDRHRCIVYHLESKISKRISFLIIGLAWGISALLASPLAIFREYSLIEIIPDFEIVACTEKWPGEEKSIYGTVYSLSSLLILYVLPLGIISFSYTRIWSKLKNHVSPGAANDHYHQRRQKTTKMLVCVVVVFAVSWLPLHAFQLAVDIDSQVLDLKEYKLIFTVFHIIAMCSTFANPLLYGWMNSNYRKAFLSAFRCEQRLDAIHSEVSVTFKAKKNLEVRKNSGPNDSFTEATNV
Melanin-concentrating hormone receptor 1, sequence (Q99705 whole entry): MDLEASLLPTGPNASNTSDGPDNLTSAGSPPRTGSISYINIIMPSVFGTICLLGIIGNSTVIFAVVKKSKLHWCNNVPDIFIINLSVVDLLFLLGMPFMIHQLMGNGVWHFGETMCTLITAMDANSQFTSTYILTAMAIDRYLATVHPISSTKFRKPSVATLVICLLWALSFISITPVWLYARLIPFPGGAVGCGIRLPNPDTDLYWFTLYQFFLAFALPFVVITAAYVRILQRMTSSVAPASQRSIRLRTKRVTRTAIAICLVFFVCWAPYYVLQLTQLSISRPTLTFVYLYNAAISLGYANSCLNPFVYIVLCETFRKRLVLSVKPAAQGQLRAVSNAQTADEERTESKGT
Peroxisome proliferator-activated receptor gamma/Nuclear receptor corepressor 2, sequence (P37231 whole entry): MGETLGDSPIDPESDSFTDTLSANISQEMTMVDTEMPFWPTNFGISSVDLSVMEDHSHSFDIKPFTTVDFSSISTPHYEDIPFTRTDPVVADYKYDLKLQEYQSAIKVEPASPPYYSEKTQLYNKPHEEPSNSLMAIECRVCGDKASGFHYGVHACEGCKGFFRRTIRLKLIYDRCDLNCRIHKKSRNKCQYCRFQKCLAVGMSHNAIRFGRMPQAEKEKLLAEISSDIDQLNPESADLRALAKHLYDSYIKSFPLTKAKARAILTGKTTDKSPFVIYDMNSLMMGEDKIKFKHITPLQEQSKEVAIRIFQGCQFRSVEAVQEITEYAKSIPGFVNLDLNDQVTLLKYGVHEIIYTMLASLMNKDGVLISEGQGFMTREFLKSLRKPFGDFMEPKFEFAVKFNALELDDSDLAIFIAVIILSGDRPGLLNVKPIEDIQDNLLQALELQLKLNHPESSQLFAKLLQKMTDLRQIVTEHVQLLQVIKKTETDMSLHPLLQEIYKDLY
Peroxisome proliferator-activated receptor gamma/Nuclear receptor corepressor 2, sequence (Q9Y618 whole entry): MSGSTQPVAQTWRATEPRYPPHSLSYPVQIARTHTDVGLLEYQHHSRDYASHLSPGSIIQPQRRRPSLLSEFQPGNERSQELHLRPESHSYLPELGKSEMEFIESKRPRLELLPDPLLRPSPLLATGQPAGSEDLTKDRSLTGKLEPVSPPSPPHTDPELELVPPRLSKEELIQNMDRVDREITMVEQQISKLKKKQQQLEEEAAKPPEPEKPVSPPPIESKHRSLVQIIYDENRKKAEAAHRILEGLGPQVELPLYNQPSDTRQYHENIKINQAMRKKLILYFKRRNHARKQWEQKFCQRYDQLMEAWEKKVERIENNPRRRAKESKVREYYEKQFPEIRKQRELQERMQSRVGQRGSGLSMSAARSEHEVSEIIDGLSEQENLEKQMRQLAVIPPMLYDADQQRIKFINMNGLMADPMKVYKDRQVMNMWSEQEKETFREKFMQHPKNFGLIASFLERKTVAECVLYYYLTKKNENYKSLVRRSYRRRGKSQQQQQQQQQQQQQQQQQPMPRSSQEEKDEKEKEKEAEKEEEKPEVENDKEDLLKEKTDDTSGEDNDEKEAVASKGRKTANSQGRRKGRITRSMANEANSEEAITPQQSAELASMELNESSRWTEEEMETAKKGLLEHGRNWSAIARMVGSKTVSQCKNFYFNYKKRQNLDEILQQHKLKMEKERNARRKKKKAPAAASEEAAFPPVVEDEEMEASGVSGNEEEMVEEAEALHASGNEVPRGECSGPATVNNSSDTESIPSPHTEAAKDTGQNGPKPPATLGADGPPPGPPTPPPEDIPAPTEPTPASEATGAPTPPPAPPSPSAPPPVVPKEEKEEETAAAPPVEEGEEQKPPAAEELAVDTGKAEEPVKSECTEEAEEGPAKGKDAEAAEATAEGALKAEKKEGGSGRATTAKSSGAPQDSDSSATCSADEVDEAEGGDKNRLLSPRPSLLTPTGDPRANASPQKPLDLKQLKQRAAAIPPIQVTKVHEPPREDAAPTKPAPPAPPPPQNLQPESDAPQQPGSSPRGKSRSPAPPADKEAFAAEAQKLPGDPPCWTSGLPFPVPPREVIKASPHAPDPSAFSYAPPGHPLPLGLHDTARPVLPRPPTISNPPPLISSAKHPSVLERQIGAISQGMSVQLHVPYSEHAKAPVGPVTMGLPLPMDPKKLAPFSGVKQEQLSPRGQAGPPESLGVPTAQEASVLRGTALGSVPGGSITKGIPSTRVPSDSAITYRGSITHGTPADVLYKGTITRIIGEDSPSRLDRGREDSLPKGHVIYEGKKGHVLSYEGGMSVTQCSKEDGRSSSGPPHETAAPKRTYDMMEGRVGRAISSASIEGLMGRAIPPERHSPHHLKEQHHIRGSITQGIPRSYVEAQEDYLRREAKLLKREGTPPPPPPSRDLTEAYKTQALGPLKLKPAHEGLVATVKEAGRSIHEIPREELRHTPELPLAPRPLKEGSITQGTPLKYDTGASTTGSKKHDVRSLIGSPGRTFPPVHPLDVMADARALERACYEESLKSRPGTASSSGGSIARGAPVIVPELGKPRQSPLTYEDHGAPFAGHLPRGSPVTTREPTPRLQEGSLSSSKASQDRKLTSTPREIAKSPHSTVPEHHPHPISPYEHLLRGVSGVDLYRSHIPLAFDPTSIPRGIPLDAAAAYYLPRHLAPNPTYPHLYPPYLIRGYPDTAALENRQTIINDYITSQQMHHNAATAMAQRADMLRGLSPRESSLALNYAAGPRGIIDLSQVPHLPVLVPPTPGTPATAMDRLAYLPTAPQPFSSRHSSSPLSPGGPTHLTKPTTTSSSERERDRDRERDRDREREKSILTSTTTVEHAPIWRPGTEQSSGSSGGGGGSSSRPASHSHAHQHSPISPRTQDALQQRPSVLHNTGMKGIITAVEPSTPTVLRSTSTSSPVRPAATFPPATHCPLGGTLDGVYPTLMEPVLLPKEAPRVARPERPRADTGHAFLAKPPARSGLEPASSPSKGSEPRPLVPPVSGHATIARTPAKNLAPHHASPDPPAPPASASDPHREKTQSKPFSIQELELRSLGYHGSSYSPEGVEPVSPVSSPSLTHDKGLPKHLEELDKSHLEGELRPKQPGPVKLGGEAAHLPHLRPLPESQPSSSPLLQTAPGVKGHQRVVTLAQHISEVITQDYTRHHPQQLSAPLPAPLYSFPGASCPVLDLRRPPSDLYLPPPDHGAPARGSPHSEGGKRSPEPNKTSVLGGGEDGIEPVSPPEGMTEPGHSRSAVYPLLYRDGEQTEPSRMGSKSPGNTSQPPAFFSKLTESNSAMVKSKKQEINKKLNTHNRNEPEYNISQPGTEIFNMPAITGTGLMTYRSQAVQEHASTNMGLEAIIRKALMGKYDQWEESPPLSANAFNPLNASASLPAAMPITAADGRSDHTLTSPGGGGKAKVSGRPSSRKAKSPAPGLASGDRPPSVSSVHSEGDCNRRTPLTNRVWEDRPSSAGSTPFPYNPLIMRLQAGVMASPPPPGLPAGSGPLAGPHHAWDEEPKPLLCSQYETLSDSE

Structure (SMILES): Cc1c(Cl)ccc2c1NC(C(=O)O)C1CC=CC21 (stereo unspecified)
- EC50 (Bcl-2-like protein 10): 5.21 µM (active)

Structure (SMILES): COc1cc(C2C(C(=O)c3cc4ccccc4o3)=C(O)C(=O)N2c2cc(C)on2)cc(OC)c1OC (stereo unspecified)
- IC50 [1]: > 39.8 µM (not active)
- EC50 [2]: > 260 µM (inactive)
- IC50 [3]: 4.1 µM (active)

Structure (SMILES): COC(=O)C12CC3(CCC4C5C(C(OCc6ccccc6)C41)C52)OCCO3 (stereo unspecified)
- AC50 (Cytochrome P450 2C9): 5.01 µM (inconclusive)

Structure (SMILES): COc1ccc(Cn2nc(C)cc2OC(=O)c2c(F)cccc2F)cc1
- CC50 (Vero): > 200 µM (active)
- IC50 [4]: > 133 µM (active)

Structure (SMILES): COc1ccc(Oc2c(Cl)cnn(-c3cccc(C(F)(F)F)c3)c2=O)cc1
- IC50 [5]: 2.6 µM (active)

Structure (SMILES): O=c1c2ccccc2nc(/C=C\c2ccccc2[N+](=O)[O-])n1-c1ccccc1O
- AC50 (HeLa): 94.2 µM (active)

Structure (SMILES): CCOc1ccc(Oc2c(/C=N/NC(C)=O)c(C)nn2-c2ccccc2)cc1
- IC50 [6]: 4.53 µM (active)
- IC50 [7]: 8.9 µM (active)
